This note sets out measurements from US20240108740A1, “THERAPEUTIC COMPOSITIONS INCLUDING SPN10 AND USES THEREOF” (Stealth BioTherapeutics Inc., priority 2022, published 2024).

Residues, ends and D or L forms follow the SMILES beside them.

For test [1], the system named is neuronal N2A cells. In words: Example 21: intracellular ROS and cell survival after t-BHP. It counts as cell-based. Conditions: t-BHP 0.5 or 1 mM, 40 min; then 4 hours. On the procedure:
Cells will be washed twice and incubated in medium alone or medium containing varying concentrations of peptide conjugates, aromatic-cationic peptides or SPN10(s) with or without aromatic-cationic peptides for 4 hours. Intracellular ROS will be measured using carboxy-H2DCFDA (Molecular Probes, Portland, OR, U.S.A.). Cell death will be measured using an MTS cell proliferation assay (Promega, Madison, WI).

Test [2] deals with Caco-2 cells. In words: Example 25: mitochondrial membrane potential after t-BHP (TMRM, CLSM). Format: cell-based, human. The settings on record: t-BHP 1 mM, 4 hours. As to the method:
Caco-2 cells will be treated with t-BHP (1 mM) alone or in the presence of peptide conjugates (0.1 μM); aromatic-cationic peptides (an equivalent molar dose of aromatic-cationic peptide based on the concentration of the aromatic-cationic peptide administered in the peptide conjugate treatment group); SPN10(s) (an equivalent molar dose of SPN10 based on the concentration of SPN10 administered in the peptide conjugate treatment group); or SPN10(s) in combination with aromatic-cationic peptides (e.g., an equivalent molar dose of SPN10 based on the concentration of SPN10 administered in the peptide conjugate treatment group and an equivalent molar dose of aromatic-cationic peptide based on the concentration of aromatic-cationic peptide administered in the peptide conjugate treatment group) for 4 hours, and then incubated with TMRM and examined under CLSM.

The subject of test [3] is male C57BL mice. Nature of the test: Example 46: burn-induced liver apoptosis. Format: in vivo, mouse. On the procedure: Six-to-eight week old male C57BL mice will be subjected to 30% total body surface (TBSA) burn injury and subsequently injected daily with saline vehicle; peptide conjugates (5 mg/kg body weight); aromatic-cationic peptides (an equivalent molar dose of aromatic-cationic peptide based on the concentration of the aromatic-cationic peptide administered in the peptide conjugate treatment group); SPN10(s) (an equivalent molar dose of SPN10 based on the concentration of SPN10 administered in the peptide conjugate treatment group); or SPN10(s) in combination with aromatic-cationic peptides (e.g., an equivalent molar dose of SPN10 based on the concentration of SPN10 administered in the peptide conjugate treatment group and an equivalent molar dose of aromatic-cationic peptide based on the concentration of aromatic-cationic peptide administered in the peptide conjugate treatment group). A weight- and time-matched sham-burn group exposed to lukewarm (˜37° C.) will serve as controls. Liver tissues will be collected 1, 3, and 7 days after burn injury treatment and analyzed for apoptosis (TUNEL), activated caspase levels (Western blot), and caspase activity (enzymatic assay).

Test [4] deals with Sprague Dawley rats. Nature of the test: Example 54: metabolic syndrome (HFD/STZ). It counts as in vivo, rat. The settings on record: 10 weeks of administration. As to the method: Sprague Dawley rats will be fed with a high-fat diet (HFD) for 6 weeks and then administered a single dose of STZ (30 mg/kg). The rats will be maintained on HFD until 14 weeks after STZ administration. Control subjects fed normal rat chow (NRC) for 6 weeks will be administered citrate buffer without STZ. After 5 months, diabetic subjects will be treated with peptide conjugates (10 mg/kg, 3 mg/kg, or 1 mg/kg s.c.q.d. (subcutaneously, once daily)), aromatic-cationic peptides (an equivalent molar dose of aromatic-cationic peptide based on the concentration of the aromatic-cationic peptide administered in the peptide conjugate group), SPN10(s) (an equivalent molar dose of SPN10 based on the concentration of SPN10 administered in the peptide conjugate group), SPN10(s) in combination with aromatic-cationic peptides (e.g., an equivalent molar dose of SPN10 based on the concentration of SPN10 administered in the peptide conjugate treatment group and an equivalent molar dose of aromatic-cationic peptide based on the concentration of aromatic-cationic peptide administered in the peptide conjugate treatment group) or control vehicle (saline) 5 days per week for 10 weeks. The study groups will be as follows: • Group A: HFD/STZ+peptide conjugates 10 mg/kg s.c.q.d. (Mon-Fri.), n=12; • Group B: HFD/STZ+peptide conjugates 3 mg/kg s.c.q.d. […]

Turning to `N=C(N)NCCC[C@H](NC(=O)[C@@H](N)Cc1c[nH]c2ccccc12)C(=O)N[C@@H](Cc1c[nH]c2ccccc12)C(=O)N[C@@H](CCCCN)C(N)=O` [SPN10, H-L-Trp-L-Arg-L-Trp-L-Lys-NH2] (H-WRWK-NH2), in test [1], the “cell survival (MTS)” value is on record as “increase cell survival” and the “intracellular ROS (carboxy-H2DCFDA)” value is recorded as “dose-dependently reduce intracellular ROS”. Besides, the “mitochondrial depolarization caused by t-BHP” value in test [2] is given as “protect against mitochondrial depolarization”. Further, the “rate of apoptosis in the liver after burn (TUNEL)” value in test [3] (30% TBSA burn, days 1, 3, 7) is on record as “attenuate or prevent this effect”. In addition, the “protein oxidation following burn injury” value in test [3] (compared to burn control subjects) is listed as “decrease in protein oxidation”. For the same molecule, the “caspase-3 activation (Western blot)” value in test [3] (days 3 and 7 post-burn) was “attenuate or suppress caspase-3 activation”. Moreover, the “caspase activity (enzymatic assay)” value in test [3] (post-burn day 7) is recorded as “reduce caspase activity to a level not statistically different from that of sham control group”. Further, the “blood triglyceride level of HFD/STZ rats” value in test [4] is “reduced to normal levels”.
